{
  "source": "patent US12276654B2",
  "about": "“Chemical probe-dependent evaluation of protein activity and uses thereof” (The University of Chicago, priority 2017, dated 2025)",
  "molecular_target": "T1, FAAH (Mus musculus, UniProt O08914)",
  "T1 construct": "Then the mPBMCs were acquired from the mouse blood and subjected to family wide probe treatment; from tissue; host or cells: mouse blood PBMCs (mPBMCs)",
  "T1 sequence (O08914 1-579)": "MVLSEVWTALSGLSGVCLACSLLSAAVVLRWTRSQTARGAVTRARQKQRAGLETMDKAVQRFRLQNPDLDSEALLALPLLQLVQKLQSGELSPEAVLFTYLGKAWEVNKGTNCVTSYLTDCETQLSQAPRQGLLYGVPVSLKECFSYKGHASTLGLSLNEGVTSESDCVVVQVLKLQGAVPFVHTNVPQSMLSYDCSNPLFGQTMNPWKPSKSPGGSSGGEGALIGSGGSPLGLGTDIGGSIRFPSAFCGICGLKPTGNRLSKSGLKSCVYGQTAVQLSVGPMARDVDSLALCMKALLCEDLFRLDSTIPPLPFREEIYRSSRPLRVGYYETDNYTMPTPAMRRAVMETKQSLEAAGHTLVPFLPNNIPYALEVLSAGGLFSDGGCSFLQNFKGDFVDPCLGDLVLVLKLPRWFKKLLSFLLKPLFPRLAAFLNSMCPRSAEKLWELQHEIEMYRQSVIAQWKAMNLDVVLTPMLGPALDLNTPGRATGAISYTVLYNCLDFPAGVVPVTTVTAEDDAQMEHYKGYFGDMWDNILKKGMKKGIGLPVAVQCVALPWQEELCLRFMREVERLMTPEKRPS",
  "assay": "sADPL in vivo target engagement in mPBMCs after oral gavage, off-target FAAH",
  "settings": "mice, 3 and 80 mg/kg",
  "text": "FIG. 25. In vivo Target Engagement. The mice were administrated with vehicle (PEG300) or NCEH1 inhibitor JW480 by oral gavage. Then the mPBMCs were acquired from the mouse blood and subjected to family wide probe treatment to profile the in vivo target engagement.\nFollowing the in vitro study, in vivo target engagement was planned. In this experiment, the inventors orally gavaged the mice with vehicle or inhibitors, then collected the mPBMCs for probe treatment and sADPL measurement. Again, first the activity of NCEH1 was tested in mice PBMCs, and good activity was found. The delta Ct is over 7 cycles, which is over 100 fold change.",
  "data": [
    {"smiles": "CC(C)c1ccccc1OC(=O)NCCc1ccc2ccccc2c1", "note": "[JW480]", "values": [
      {"measurement": "in vivo target engagement of off-target FAAH in mPBMCs", "value": "no target engagements were observed"}
    ]}
  ]
}
